Key:
[1] = introduction, background statement; ref Jilani et al., 2013; cited from earlier work
B. bovis (Texas strain) = assay: in vitro multiplication inhibition assay (SYBR Green I fluorescence, 96 h), single drugs and two-drug combinations; type: cell-based, Babesia bovis; conditions: B. bovis, 96 h, triplicate, mean ± SD; read-out: IC50 on in vitro culture of parasites
Description: (§1) Babesia parasite cultures were maintained using a microaerophilic stationary-phase culture system ([Levy and Ristic, 1980]; [Avarzed et al., 1997]; [Igarashi et al., 1998]). Briefly, bovine Babesia parasites were grown in bovine red blood cells (RBC) in the specific complete medium for each species. The medium for B. bovis (Texas strain) contained GIT medium supplemented with 10% bovine serum, while the medium for B. bigemina (Argentina strain) and B. divergens (Germany strain) was Medium 199 and RPMI 1640 medium, respectively, supplemented with 40% bovine serum ([Rizk et al., 2016]). B. caballi (USDA strain) was grown using equine RBC in GIT medium supplemented with 10% equine serum. T. equi (USDA strain) was grown in equine RBC in M199 medium supplemented with 40% equine serum and hypoxanthine (MP Biomedicals, USA) at a final concentration of 13.6 μg/ml. All of the media included 60 U/ml penicillin G, 60 μg/ml streptomycin, and 0.15 μg/ml amphotericin B (Sigma-Aldrich, USA). The cultures were incubated at 37 °C in a humidified chamber with an atmosphere of 5% CO2, 5% O2, and 90% N2.
(§2) The assays were conducted in accordance with the protocol described previously with modification ([Guswanto et al., 2014]). Briefly, the cultures of B. bovis, B. bigemina, B. divergens, B. caballi, and T. equi with a parasitemia of 8%, 3%, 10%, 4%, and 9%, respectively, were harvested and adjusted to 1% parasitemia with fresh RBC before the inhibition assay. The 60 inner wells of a 96-well plate were used in the assay, while the peripheral wells were filled with sterile distillate water to reduce evaporation during incubation. To each well in triplicate, 2.5 μl of infected RBC (5 μl for B. divergens, B. caballi, and T. equi) was added and mixed with a culture medium containing the drug to a total volume of 100 μl. The stock solution of 17-DMAG, DA, and AV was dissolved in a culture medium at various concentrations using two-fold dilution. A culture medium containing DMSO at a final concentration of 0.2% was added to the well with infected RBC as a positive control and to the well with uninfected RBC as a negative control. Furthermore, a drug combination assay was conducted in parallel with the single drug assay at the constant ratio in accordance with the Chou–Talalay method ([Chou, 2006]). In the same plate with a single drug inhibition assay, a two-drug combination (DA+17-DMAG, DA + AV, and 17-DMAG + AV) at concentrations of 0.25 x IC50, 0.5 x IC50, IC50, 2 x IC50, and 4 x IC50 was added to the well containing infected RBC in triplicate. The plate was incubated in a humidified incubator with 5% CO2, 5% O2, and 90% N2. After 96 h, 100 μl of a lysis buffer containing SYBR Green I was added to each well. The plate was wrapped with aluminum foil to avoid direct light exposure and incubated at room temperature. After incubation for 6 h, fluorescence values were measured using a fluorescence spectrophotometer (Fluoroskan Ascent, Thermo Fisher Scientific, USA) with the excitation and emission wavelength at 485 nm and 518 nm, respectively. The fluorescence data were subtracted from the negative control and used to calculate the IC50.
(§3) The IC50 of 17-DMAG, DA, and AV was calculated from the percentage of inhibition on the in vitro multiplication of all tested species using non-linear regression (curve fit), available in GraphPad Prism (GraphPad Software Inc., USA). Combination index (CI) values for the drug combination were calculated using CompuSyn software ([Chou, 2006]). Since the chemotherapy effect is preferable at the highest inhibition, the degree of synergism was determined as the weighted average of CI values using a formula ((1 x IC50) + (2 x IC75) + (3 x IC90) + (4 x IC95))/10 ([Chou, 2006]). The differences among groups regarding the parasitemia, hematology profiles, and body weight in the B. microti–infected mouse model were analyzed using Student's t-test, available in GraphPad Prism software.

[2] = tested on: B. bigemina (Argentina strain); assay: as above; type: cell-based, Babesia bigemina; conditions: B. bigemina, 96 h, triplicate, mean ± SD; read-out: IC50 on in vitro culture of parasites
Description: as §1, §2, §3

[3] = tested on: B. divergens (Germany strain); assay: as above; type: cell-based, Babesia divergens; conditions: B. divergens, 96 h, triplicate, mean ± SD; read-out: IC50 on in vitro culture of parasites
Description: as §1, §2, §3

B. caballi (USDA strain) = assay: as above; type: cell-based, Babesia caballi; conditions: B. caballi, 96 h, triplicate, mean ± SD; read-out: IC50 on in vitro culture of parasites
Description: as §1, §2, §3

NIH/3T3 cells = assay: cytotoxicity (drug-exposure viability) assay, CCK-8; type: cell-based, mouse
Description: (§4) Each medium was supplemented with 10% fetal bovine serum, 0.5% penicillin/streptomycin (Gibco, Life Technologies, USA), and an additional 1% glutamine. The medium was changed every 3–4 days and incubated until approximately 80% confluent. The cells were free from mycoplasma contamination after being checked by staining with DAPI (Sigma-Aldrich, USA). The detachment of cells from the culture flask was done using TrypLE™ Express (Gibco, Life Technologies, USA) after washing two times with Dulbecco's phosphate-buffered saline (DPBS). Subsequently, the counting of viable cells was carried out using a Neubauer improved C-Chip (NanoEntek Inc., Korea) after staining with 0.4% trypan blue solution. The drug-exposure viability assay was performed in accordance with the recommendation of the Cell Counting Kit-8 (CCK-8, Dojindo, Japan). Briefly, the assay was carried out using a 96-well plate at 37 °C in a humidified incubator with 5% CO2. One hundred microliters of cells at a density of 5 × 10^4 cells/ml was seeded per well and allowed to attach to the plate for 24 h. […] The exposure of drugs was carried out for 24 h, followed by the addition of 10 μl of CCK-8. The plate was further incubated for 3 h, and the absorbance was measured at 450 nm using a microplate reader.

MDBK cells = assay: as above; type: cell-based, bovine
Description: as §4

[4] = tested on: B. microti (Munich strain); assay: inhibition assay using a B. microti-infected mouse model; type: in vivo, BALB/c mice; conditions: 17-DMAG 30, DA 25, AV 20 mg/kg BW; 17-DMAG + DA 15 + 15, 17-DMAG + AV 15 + 10, DA + AV 15 + 10 mg/kg BW; 5 consecutive days
Description: B. microti (Munich strain) was recovered from -80 °C stock in two 6-week female Balb/c mice (Clea, Japan). The parasitemia was monitored every 2 days. […] The inhibitory effect of 17-DMAG was also determined using a B. microti mouse model according to the previous protocol ([Goo et al., 2010]). Briefly, 35 female BALB/c mice aged 8 weeks received an intraperitoneal injection of 1 × 10^7 of B. microti-infected RBC and were divided into seven groups. Another group consisting of five mice was kept uninfected and untreated as a control. The multiplication of B. microti was observed from blood smears after staining with Giemsa using a light microscope. The drug treatment was initiated to all infected mice on day five, after the parasitemia reached approximately 1%, and continue to the total of five consecutive days. Group 1 was treated with 4% DMSO in saline water as a control intraperitoneally. […] The parasitemia was estimated from Giemsa-stained blood smears using microscopy in approximately 5000 RBC. Furthermore, the hematology profiles including RBC, hemoglobin, and hematocrit were measured from 10 μl of mouse blood using an automatic hematology analyzer (Celltac α MEK-6450, Nihon Kohden, Tokyo, Japan). The rate of parasitemia, hematology profiles, and mouse body weight was monitored for 60 days. The experiment was repeated once so each group contained 10 mice. […] Combination index (CI) values for the drug combination were calculated using CompuSyn software ([Chou, 2006]). […] The differences among groups regarding the parasitemia, hematology profiles, and body weight in the B. microti-infected mouse model were analyzed using Student's t-test, available in GraphPad Prism software. The difference was considered significant if P < 0.05.

[5] = at a concentration of 40 μM, separate assay

Compound	solubility [1]	IC50 (B. bovis (Texas strain))	IC50 [2]	IC50 [3]	IC50 (B. caballi (USDA strain))	IC50 (NIH/3T3 cells; NIH/3T3, 24 h exposure, CCK-8, read-out: IC50 on cell line NIH/3T3)	inhibition on NIH/3T3 cell viability (NIH/3T3 cells; [5])	IC50 (MDBK cells; MDBK, 24 h exposure, CCK-8, read-out: IC50 on cell line MDBK)	inhibition on MDBK cell viability (MDBK cells; [5])	day p.i. on which parasite no longer detected in blood smears via microscopy (parasite clearance) [4]
C=CCNC1=C2C[C@@H](C)C[C@H](OC)[C@H](O)[C@@H](C)/C=C(\C)[C@H](OC(N)=O)[C@@H](OC)/C=C\C=C(/C)C(=O)NC(=CC1=O)C2=O [17-AAG, 17-N-allylamino-17-demethoxygeldanamycin]	poor solubility	–	–	–	–	–	–	–	–	–
CC(=O)NCC(=O)O.CC(=O)NCC(=O)O.N=C(N)c1ccc(N=NNc2ccc(C(=N)N)cc2)cc1 [DA, diminazene aceturate]	–	190 ± 42.1 nM	1850 ± 104 nM	378 ± 39.3 nM	13.4 ± 3.6 nM	> 40 µM	did not show any inhibition	> 40 µM	did not show any inhibition	≤ 28 day p.i.
COC1=C2C[C@@H](C)C[C@H](OC)[C@H](O)[C@@H](C)/C=C(\C)[C@H](OC(N)=O)[C@@H](OC)/C=C\C=C(/C)C(=O)NC(=CC1=O)C2=O [geldanamycin]	poor solubility	–	–	–	–	–	–	–	–	–

Reference: paper PMC6114103, “17-DMAG inhibits the multiplication of several Babesia species and Theileria equi on in vitro cultures, and Babesia microti in mice” (International Journal for Parasitology: Drugs and Drug …, 2018)
